Species: Rattus norvegicus
Experiment: DrugMatrix - Regimen: Daily Repeat
Type: toxicity, organism-based, Sprague-Dawley
Set-up: regimen Daily Repeat, gender Male, age 6-8 weeks
Conditions: in vivo, ip, 0 mg/kg, route intraperitoneal, dose level Control, vehicle 100 % SALINE; for ABSOLUTE BASOPHIL / ABSOLUTE EOSINOPHIL / ABSOLUTE LYMPHOCYTE / ABSOLUTE MONOCYTE / ABSOLUTE SEGMENTED NEUTROPHIL / BASOPHIL / EOSINOPHIL / ERYTHROCYTE COUNT / HEMATOCRIT / HEMOGLOBIN / LEUKOCYTE COUNT / LYMPHOCYTE / MEAN CORPUSCULAR HEMOGLOBIN / MEAN CORPUSCULAR HEMOGLOBIN CONCENTRATION / MEAN CORPUSCULAR VOLUME / MONOCYTE / NEUTROPHIL / PLATELET COUNT: tissue Blood
[1] = 120 h, tissue Plasma, time 5 day
[2] = […], tissue Plasma, time 14 day

Question: Which ABSOLUTE BASOPHIL (120 h, time 5 day) does the source give for CADMIUM DICHLORIDE here?
Answer: 32 cells/µL

Question: And the ABSOLUTE EOSINOPHIL (120 h, time 5 day)?
Answer: 110 cells/µL

Question: What about the ABSOLUTE LYMPHOCYTE (120 h, time 5 day) of the same substance?
Answer: 6630 cells/µL

Question: What about the ABSOLUTE MONOCYTE (120 h, time 5 day) of the same substance?
Answer: 140 cells/µL

Question: What about the ABSOLUTE SEGMENTED NEUTROPHIL (120 h, time 5 day) of the same substance?
Answer: 1170 cells/µL

Question: What about the BASOPHIL (120 h, time 5 day) of the same substance?
Answer: 0.38%

Question: What about the EOSINOPHIL (120 h, time 5 day) of the same substance?
Answer: 1.28%

Question: What about the “ERYTHROCYTE COUNT” value (120 h, time 5 day) of the same substance?
Answer: 7.45 x10E6/uL

Question: And the HEMATOCRIT (120 h, time 5 day)?
Answer: 45.74%

Question: What about the HEMOGLOBIN (120 h, time 5 day) of the same substance?
Answer: 14.72 G/DL

Question: And the “LEUKOCYTE COUNT” value (120 h, time 5 day)?
Answer: 8.11 x10E3/uL

Question: And the LYMPHOCYTE (120 h, time 5 day)?
Answer: 81.3%

Question: What about the “MEAN CORPUSCULAR HEMOGLOBIN” value (120 h, time 5 day) of the same substance?
Answer: 19.76 pg

Question: And the “MEAN CORPUSCULAR HEMOGLOBIN CONCENTRATION” value (120 h, time 5 day)?
Answer: 32.16 G/DL

Question: And the “MEAN CORPUSCULAR VOLUME” value (120 h, time 5 day)?
Answer: 61.38 fL

Question: What about the MONOCYTE (120 h, time 5 day) of the same substance?
Answer: 1.76%

Question: And the NEUTROPHIL (120 h, time 5 day)?
Answer: 14.9%

Question: What about the “PLATELET COUNT” value (120 h, time 5 day) of the same substance?
Answer: 1322.4 x10E3/uL

Question: What about the “ALANINE AMINOTRANSFERASE” value [1] of the same substance?
Answer: 25.8 u/L

Question: What about the ALBUMIN [1] of the same substance?
Answer: 3.64 G/DL

Question: What about the “ASPARTATE AMINOTRANSFERASE” value [1] of the same substance?
Answer: 81.4 u/L

Question: And the “BLOOD UREA NITROGEN” value [1]?
Answer: 14.4 mg/dL

Question: What about the CHOLESTEROL [1] of the same substance?
Answer: 69.2 mg/dL

Question: What about the “CREATINE PHOSPHOKINASE” value [1] of the same substance?
Answer: 303.2 u/L

Question: What about the CREATININE [1] of the same substance?
Answer: 0.56 mg/dL

Question: And the GLUCOSE [1]?
Answer: 125.4 mg/dL

Question: What about the “LACTATE DEHYDROGENASE” value [1] of the same substance?
Answer: 105.4 u/L

Question: And the LIPASE [1]?
Answer: 22.4 u/L

Question: What about the POTASSIUM [1] of the same substance?
Answer: 5.52 MEQ/L

Question: What about the SODIUM [1] of the same substance?
Answer: 147 MEQ/L

Question: And the “TOTAL BILIRUBIN” value [1]?
Answer: 0.2 mg/dL

Question: What about the “TOTAL PROTEIN” value [1] of the same substance?
Answer: 6.1 G/DL

Question: And the “URIC ACID” value [1]?
Answer: 1.06 mg/dL

Question: What about the ABSOLUTE BASOPHIL ([…], time 14 day) of the same substance?
Answer: 130 cells/µL

Question: And the ABSOLUTE EOSINOPHIL ([…], time 14 day)?
Answer: 140 cells/µL

Question: And the ABSOLUTE LYMPHOCYTE ([…], time 14 day)?
Answer: 13500 cells/µL

Question: What about the ABSOLUTE MONOCYTE ([…], time 14 day) of the same substance?
Answer: 400 cells/µL

Question: And the ABSOLUTE SEGMENTED NEUTROPHIL ([…], time 14 day)?
Answer: 2330 cells/µL

Question: What about the BASOPHIL ([…], time 14 day) of the same substance?
Answer: 0.72%

Question: What about the EOSINOPHIL ([…], time 14 day) of the same substance?
Answer: 0.86%

Question: What about the “ERYTHROCYTE COUNT” value ([…], time 14 day) of the same substance?
Answer: 7.74 x10E6/uL

Question: And the HEMATOCRIT ([…], time 14 day)?
Answer: 45.98%

Question: What about the “LEUKOCYTE COUNT” value ([…], time 14 day) of the same substance?
Answer: 16.61 x10E3/uL

Question: And the LYMPHOCYTE ([…], time 14 day)?
Answer: 81.34%

Question: And the “MEAN CORPUSCULAR HEMOGLOBIN” value ([…], time 14 day)?
Answer: 18 pg

Question: And the “MEAN CORPUSCULAR HEMOGLOBIN CONCENTRATION” value ([…], time 14 day)?
Answer: 30.22 G/DL

Question: And the “MEAN CORPUSCULAR VOLUME” value ([…], time 14 day)?
Answer: 59.4 fL

Question: And the MONOCYTE ([…], time 14 day)?
Answer: 2.46%

Question: And the NEUTROPHIL ([…], time 14 day)?
Answer: 14.14%

Question: What about the “PLATELET COUNT” value ([…], time 14 day) of the same substance?
Answer: 1445.5 x10E3/uL

Question: What about the ABSOLUTE BASOPHIL ([…], time 28 day) of the same substance?
Answer: 91 cells/µL

Question: What about the ABSOLUTE EOSINOPHIL ([…], time 28 day) of the same substance?
Answer: 110 cells/µL

Question: What about the ABSOLUTE LYMPHOCYTE ([…], time 28 day) of the same substance?
Answer: 9910 cells/µL

Question: And the ABSOLUTE MONOCYTE ([…], time 28 day)?
Answer: 210 cells/µL

Question: What about the ABSOLUTE SEGMENTED NEUTROPHIL ([…], time 28 day) of the same substance?
Answer: 1560 cells/µL

Question: And the BASOPHIL ([…], time 28 day)?
Answer: 0.77%

Question: What about the EOSINOPHIL ([…], time 28 day) of the same substance?
Answer: 0.92%

Question: What about the “ERYTHROCYTE COUNT” value ([…], time 28 day) of the same substance?
Answer: 8.21 x10E6/uL

Question: And the HEMATOCRIT ([…], time 28 day)?
Answer: 47.53%

Question: What about the HEMOGLOBIN ([…], time 28 day) of the same substance?
Answer: 15.65 G/DL

Question: What about the “LEUKOCYTE COUNT” value ([…], time 28 day) of the same substance?
Answer: 11.91 x10E3/uL

Question: And the LYMPHOCYTE ([…], time 28 day)?
Answer: 83.34%

Question: And the “MEAN CORPUSCULAR HEMOGLOBIN” value ([…], time 28 day)?
Answer: 19.07 pg

Question: And the “MEAN CORPUSCULAR HEMOGLOBIN CONCENTRATION” value ([…], time 28 day)?
Answer: 32.93 G/DL

Question: What about the “MEAN CORPUSCULAR VOLUME” value ([…], time 28 day) of the same substance?
Answer: 57.9 fL

Question: What about the MONOCYTE ([…], time 28 day) of the same substance?
Answer: 1.68%

Question: What about the NEUTROPHIL ([…], time 28 day) of the same substance?
Answer: 12.97%

Question: And the “PLATELET COUNT” value ([…], time 28 day)?
Answer: 1323.8 x10E3/uL

Question: What about the “ALANINE AMINOTRANSFERASE” value [2] of the same substance?
Answer: 31.6 u/L

Question: What about the ALBUMIN [2] of the same substance?
Answer: 3.66 G/DL

Question: And the “ALKALINE PHOSPHATASE” value [2]?
Answer: 228.6 u/L

Question: And the “ASPARTATE AMINOTRANSFERASE” value [2]?
Answer: 79.6 u/L

Question: What about the “BLOOD UREA NITROGEN” value [2] of the same substance?
Answer: 11.2 mg/dL

Question: And the CHLORIDE [2]?
Answer: 107 MEQ/L

Question: What about the CHOLESTEROL [2] of the same substance?
Answer: 57 mg/dL

Question: What about the CREATININE [2] of the same substance?
Answer: 0.5 mg/dL

Question: And the GLUCOSE [2]?
Answer: 124.4 mg/dL

Question: And the “LACTATE DEHYDROGENASE” value [2]?
Answer: 106.4 u/L

Question: And the LIPASE [2]?
Answer: 24.4 u/L

Question: And the PHOSPHORUS [2]?
Answer: 10.52 mg/dL

Question: And the POTASSIUM [2]?
Answer: 6.34 MEQ/L

Question: And the SODIUM [2]?
Answer: 149.2 MEQ/L

Question: What about the “TOTAL BILIRUBIN” value [2] of the same substance?
Answer: 0.2 mg/dL

Question: And the “TOTAL PROTEIN” value [2]?
Answer: 6.48 G/DL

From ChEMBL document CHEMBL3885881, “DrugMatrix”
